Laboratory results taken from patent US10391101B2, “Derivatives of 7-fluoro-8-chloro-5H-dibenzo [B,E,] [1,4] diazepine and use thereof” (VALENTEK LLC, priority 2014, dated 2019).

Columns and labels:
[1] = Sub-chronic toxicity, morphological parameters of blood (neutrophil kinetics); assay type: in vivo; settings: rats, intragastric 5 mg/kg daily for 28 days
From the text: The positive effect of the introduction of fluorine has been observed in pre-clinical studies of sub-chronic toxicity. […]. Increase in the number of neutrophils has been observed among rats after administration of aminoglutethimide, which also involves a high risk of agranulocytosis (Ng, W. et. al., Chem Res Toxicol, 2013, 26, 1272-81). Thus changes in the kinetics of neutrophils after intake of the medication can serve as a biomarker to predict the risk of agranulocytosis.
The neutrophil kinetics has been studied within comparative tests of sub-chronic toxicity. Studies have been conducted using rats upon intragastric administration of the substance at a dose of 5 mg/kg. The test substances were administered daily for 28 days. Each experimental group was composed of 10 animals of each sex.

[2] = molecular target: H1 receptor (Homo sapiens, UniProt P35367); experiment: H1 histamine receptor functional experiment, antagonism set-up (Fluo-4 NW Ca2+ fluorescence); assay type: cell-based
Protocol: (§1) The functional activity of compounds on the H4 receptor was determined according to the change in the cell conductibility induced by redistribution of intracellular calcium. The activity for H1 receptor was determined according to the fluorescence of Fluo-4 NW indicator introduced into cells induced by the change in Ca2+ ion concentration in the cytosol.
(§2) Functional experiments were performed in the set-up of agonism and antagonism. In the set-up of agonism the test substance was added directly to the cells expressing the receptor and was determined as the dependence of the response intensity on the substance concentration. Concentration at which the half-peak response (EC50) could be reached served as a measure of activity of agonists.
(§3) In the set-up of antagonism, the ability of test substances to block the action of agonists was assessed. For this purpose, cells were incubated with the test substances, then the reference agonists were added in the system and the functional response was determined.

[3] = molecular target: H4 receptor (Homo sapiens, UniProt Q9H3N8); experiment: H4 histamine receptor functional experiment, agonism set-up (cell conductibility); assay type: cell-based
Protocol: as §1, §2, §3

[4] = molecular target: T1, M4 muscarinic receptor (Homo sapiens, UniProt P08173); experiment: cell-based
T1 sequence (P08173 1-479): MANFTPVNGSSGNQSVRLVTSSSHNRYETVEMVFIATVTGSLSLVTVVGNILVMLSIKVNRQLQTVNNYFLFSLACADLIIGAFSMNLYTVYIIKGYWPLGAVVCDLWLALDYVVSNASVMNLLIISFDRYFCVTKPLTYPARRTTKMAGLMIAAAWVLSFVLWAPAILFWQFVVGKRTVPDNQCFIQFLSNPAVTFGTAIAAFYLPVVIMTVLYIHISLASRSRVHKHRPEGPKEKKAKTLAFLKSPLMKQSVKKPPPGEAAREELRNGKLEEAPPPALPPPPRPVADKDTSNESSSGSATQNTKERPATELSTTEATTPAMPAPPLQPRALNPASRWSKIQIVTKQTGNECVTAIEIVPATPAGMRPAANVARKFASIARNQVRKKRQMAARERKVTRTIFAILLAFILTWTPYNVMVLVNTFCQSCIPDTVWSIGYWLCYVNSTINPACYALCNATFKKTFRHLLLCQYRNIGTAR
Protocol: as §2, §3
The curves of dependence of functional response on the concentration of compounds for the receptor were made; the level of second messenger—cAMP determined according to the fluorescence after the lysis of cell expressing the receptor was taken as a criterion.

[5] = molecular target: D2 dopamine receptors (Homo sapiens, UniProt P14416); experiment: cell-based; settings: determined by IC50 values in the set-up of antagonism
Protocol: (§4) The response on cells expressing D2 receptors was determined according to the change in the cell conductibility induced by redistribution of intracellular calcium. For D4 receptor the level of second messenger—cAMP was taken as the criterion.

[6] = molecular target: T2, D4 dopamine receptors (Homo sapiens, UniProt P21917); experiment: D4 dopamine receptor antagonism, Kb from IC50 (cAMP level); assay type: cell-based
T2 sequence (P21917 1-419): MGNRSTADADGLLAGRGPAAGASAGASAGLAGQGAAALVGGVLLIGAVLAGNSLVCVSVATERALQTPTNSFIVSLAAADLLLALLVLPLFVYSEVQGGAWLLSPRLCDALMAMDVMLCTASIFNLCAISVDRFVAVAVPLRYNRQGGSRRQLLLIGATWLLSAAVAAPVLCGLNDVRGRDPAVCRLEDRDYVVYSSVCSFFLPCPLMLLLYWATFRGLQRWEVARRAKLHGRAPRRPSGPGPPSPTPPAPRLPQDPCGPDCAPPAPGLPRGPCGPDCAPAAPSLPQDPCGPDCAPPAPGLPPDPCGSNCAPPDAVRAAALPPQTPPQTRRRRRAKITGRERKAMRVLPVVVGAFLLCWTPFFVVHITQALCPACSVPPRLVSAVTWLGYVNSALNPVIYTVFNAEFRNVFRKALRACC
Protocol: as §4

[7] = molecular target: T3, M1 receptors (Homo sapiens, UniProt P11229); experiment: M1 receptor activation functional study (Fluo-4 NW Ca2+ fluorescence); assay type: cell-based; settings: concentration-response curves, FIG. 2
T3 sequence (P11229 1-460): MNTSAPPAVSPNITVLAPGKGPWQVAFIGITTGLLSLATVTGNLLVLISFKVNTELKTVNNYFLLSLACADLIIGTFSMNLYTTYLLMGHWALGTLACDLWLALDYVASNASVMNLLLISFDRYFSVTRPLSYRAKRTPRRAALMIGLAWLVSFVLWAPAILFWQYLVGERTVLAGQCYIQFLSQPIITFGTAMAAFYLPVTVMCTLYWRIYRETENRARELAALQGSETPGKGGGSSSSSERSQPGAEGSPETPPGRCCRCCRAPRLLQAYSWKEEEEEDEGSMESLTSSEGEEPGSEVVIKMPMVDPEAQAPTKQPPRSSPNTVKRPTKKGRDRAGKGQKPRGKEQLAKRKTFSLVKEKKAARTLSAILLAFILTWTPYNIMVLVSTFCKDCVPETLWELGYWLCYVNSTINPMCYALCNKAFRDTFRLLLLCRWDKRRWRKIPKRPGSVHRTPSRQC
Protocol: The activity was determined according to the fluorescence of Fluo-4 NW indicator introduced into cells induced by the change in Ca2+ ion concentration in the cytosol.

[8] = 5-oxytriptophan hyperkinesia (head twitches); assay type: in vivo; settings: mice, intragastric 1.0-10.0 mg/kg, 5-oxytriptophan 300 mg/kg i.p.
Protocol: It is known that the precursor of serotonin (5-oxytriptophan, 5-OT) causes a specific hyperkinesia in mice in the form of head-twitching with average duration of 30-60 minutes, which is explained by the activation of serotonergic system of the CNS. […] Each experimental group included 10 male mice weighing 20-22 g. The test substances were administered intragastrically at 1.0, 2.5, 5.0 and 10.0 mg/kg 30 minutes before the intraperitoneal administration of 5-oxytriptophan at a dose of 300 mg/kg. We counted the number of head twitches per 1 minute at intervals of 10 minutes during 60 minutes.

[9] = tested on: family of adrenergic receptors; experiment: Panel of G-protein-coupled receptors, adrenergic receptors; settings: GPCR panel
From the text: In conjunction with the results of preliminary toxicological studies, the data indicates a reduction in the risk of autonomic dysfunctions, such as tachysystole, orthostatism, accommodation disorder, dysfunction of gastrointestinal tract and urination, weight gain, lack of coordination of muscle movements.

[10] = Sedation study, total distance traveled; settings: CF-1 mice, oral 1, 5 and 10 mg/kg
[11] = Metabolism and distribution of fluoroclozapine in tissues; settings: rats, single oral fluoroclozapine 10 mg/kg
[12] = Prepulse inhibition of acoustic startle response, ketamine-induced deficit; settings: mice, ketamine 50 mg/kg i.p.

Sequence of D2 dopamine receptors (P14416 whole entry): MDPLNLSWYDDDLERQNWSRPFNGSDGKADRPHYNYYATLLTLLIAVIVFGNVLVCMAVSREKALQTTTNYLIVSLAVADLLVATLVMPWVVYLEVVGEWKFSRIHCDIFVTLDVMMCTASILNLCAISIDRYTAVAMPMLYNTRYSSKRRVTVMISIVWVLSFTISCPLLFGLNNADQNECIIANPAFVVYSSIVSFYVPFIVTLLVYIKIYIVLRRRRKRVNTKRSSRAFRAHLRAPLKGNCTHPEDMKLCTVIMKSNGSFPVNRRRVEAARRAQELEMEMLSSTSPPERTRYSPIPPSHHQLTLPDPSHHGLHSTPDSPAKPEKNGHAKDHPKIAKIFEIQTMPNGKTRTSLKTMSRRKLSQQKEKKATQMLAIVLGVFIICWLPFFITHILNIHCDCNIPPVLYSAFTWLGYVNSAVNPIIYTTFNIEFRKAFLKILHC
Sequence of H1 receptor (P35367 whole entry): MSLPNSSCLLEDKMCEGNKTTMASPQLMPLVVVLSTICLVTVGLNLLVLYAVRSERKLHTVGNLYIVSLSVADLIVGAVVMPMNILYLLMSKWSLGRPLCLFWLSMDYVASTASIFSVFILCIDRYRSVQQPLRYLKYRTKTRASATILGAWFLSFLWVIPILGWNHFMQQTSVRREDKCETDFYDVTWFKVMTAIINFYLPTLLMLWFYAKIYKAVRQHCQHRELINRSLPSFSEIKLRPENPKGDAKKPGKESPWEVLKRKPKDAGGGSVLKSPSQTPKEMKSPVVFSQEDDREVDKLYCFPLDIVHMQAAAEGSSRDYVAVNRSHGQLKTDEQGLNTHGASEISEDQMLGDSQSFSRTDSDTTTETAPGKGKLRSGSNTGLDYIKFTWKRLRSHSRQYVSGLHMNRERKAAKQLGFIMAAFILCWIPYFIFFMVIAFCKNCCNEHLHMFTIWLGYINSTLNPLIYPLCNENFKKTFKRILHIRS
Sequence of H4 receptor (Q9H3N8 whole entry): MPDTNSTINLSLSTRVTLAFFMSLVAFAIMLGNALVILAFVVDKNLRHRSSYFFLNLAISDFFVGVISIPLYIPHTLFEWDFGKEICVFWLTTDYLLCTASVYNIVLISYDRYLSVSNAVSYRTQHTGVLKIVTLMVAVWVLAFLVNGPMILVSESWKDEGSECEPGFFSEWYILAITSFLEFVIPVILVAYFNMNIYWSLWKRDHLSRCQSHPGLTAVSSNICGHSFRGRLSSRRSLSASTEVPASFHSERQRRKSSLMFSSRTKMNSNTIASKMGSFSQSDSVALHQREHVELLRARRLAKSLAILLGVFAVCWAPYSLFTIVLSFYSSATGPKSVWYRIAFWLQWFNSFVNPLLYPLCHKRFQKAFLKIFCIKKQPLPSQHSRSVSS

Q: What does the source list for `CN1CCN(C2=Nc3cc(Cl)c(F)cc3Nc3ccccc32)CC1` [Fluoroclozapine, 11-(4-methylpiperazine-1-yl)-7-fluoro-8-chloro-5H-dibenzo[b,e][1,4]diazepine]?
A: Basophils [1]: 1.0 ± 0.3%; ESR [1]: 4.2 ± 0.4 mm/h; Eosinophils [1]: 0.8 ± 0.4%; Hemoglobin [1]: 155.4 ± 2.1 g/L; Ht [1]: 43.2 ± 0.7%; Lymphocytes [1]: 67.8 ± 2.4%; MCH [1]: 18.4 ± 0.1 pg; MCHC [1]: 359.4 ± 1.9 g/L; MCV [1]: 51.3 ± 0.5 fL; Metamyelocytes [1]: 0.0 ± 0.0%; Monocytes [1]: 6.4 ± 0.5%; Myelocytes [1]: 0.0 ± 0.0%; Number of circulating neutrophils in peripheral blood versus control group [1]: did not differ so much different from that of the control group; PLT count [1]: 666.4 ± 26.0 10^9/l; Plasma cells [1]: 0.0 ± 0.0%; RBC count [1]: 8.43 ± 0.07 10^12/l; Rt [1]: 77.6 ± 4.6 10^9/l; Segmented neutrophils [1]: 20.8 ± 1.5%; Stab neutrophiles [1]: 3.2 ± 0.4%; WBC count [1]: 11.2 ± 0.8 10^9/l; IC50 [2]: 18 nM; EC50 [3]: 170 nM; EC50 ([4]; M4, agonism set-up): 16000 nM; IC50 ([4]; M4, antagonism set-up): 4800 nM; Kb [5]: 260 nM; Kb ([6]; determined by IC50 values in the set-up of antagonism): 50 nM; Therapeutic window (Kb, D2/Kb, D4) ([6]; ratio of the applicant's Kb values): 5.2; Functional response on M1 receptor (agonism) [7]: virtually no effect on M1 receptors; Inhibition of twitches induced by 5-OT [8]: most evident inhibition of twitches; Activity in relation to adrenergic receptors [9]: relatively weak activity; Sedation: total distance traveled by animals [10]: significantly lower; Concentrations of parent and metabolite in the brain [11]: consistent; Metabolism [11]: is metabolized to desmethylfluoroclozapine in rats; Restoration of PPI at a dose of 10 mg/kg ([12]; 10 mg/kg): comparable to clozapine activity at a dose of 5 mg/kg; Restoration of the PPI deficit caused by ketamine ([12]; doses of 5 and 10 mg/kg): statistically significant dose-dependent restoration of the PPI deficit
